For 16 molecules, IC50 results are on record in ChEMBL document CHEMBL1128824 (Bioorg Med Chem Lett, 1995).

The target of assay [1] is T1, Protein kinase C beta type (Homo sapiens, UniProt P05771). The assay is described as follows: Inhibition of Protein kinase C beta 2 expressed in Sf-9 cells.
Assay [2] addresses T2, Protein kinase C delta type (Homo sapiens, UniProt Q05655). Kind of assay: Inhibition of Protein kinase C delta expressed in Sf-9 cells.
For assay [3], the target named is T3, Protein kinase C alpha type (Homo sapiens, UniProt P17252). The assay is described as follows: Inhibition of Protein kinase C alpha expressed in Sf-9 cells.
Assay [4] has as its target T4, Protein kinase C epsilon type (Homo sapiens, UniProt Q02156).
T4 sequence (Q02156 whole entry): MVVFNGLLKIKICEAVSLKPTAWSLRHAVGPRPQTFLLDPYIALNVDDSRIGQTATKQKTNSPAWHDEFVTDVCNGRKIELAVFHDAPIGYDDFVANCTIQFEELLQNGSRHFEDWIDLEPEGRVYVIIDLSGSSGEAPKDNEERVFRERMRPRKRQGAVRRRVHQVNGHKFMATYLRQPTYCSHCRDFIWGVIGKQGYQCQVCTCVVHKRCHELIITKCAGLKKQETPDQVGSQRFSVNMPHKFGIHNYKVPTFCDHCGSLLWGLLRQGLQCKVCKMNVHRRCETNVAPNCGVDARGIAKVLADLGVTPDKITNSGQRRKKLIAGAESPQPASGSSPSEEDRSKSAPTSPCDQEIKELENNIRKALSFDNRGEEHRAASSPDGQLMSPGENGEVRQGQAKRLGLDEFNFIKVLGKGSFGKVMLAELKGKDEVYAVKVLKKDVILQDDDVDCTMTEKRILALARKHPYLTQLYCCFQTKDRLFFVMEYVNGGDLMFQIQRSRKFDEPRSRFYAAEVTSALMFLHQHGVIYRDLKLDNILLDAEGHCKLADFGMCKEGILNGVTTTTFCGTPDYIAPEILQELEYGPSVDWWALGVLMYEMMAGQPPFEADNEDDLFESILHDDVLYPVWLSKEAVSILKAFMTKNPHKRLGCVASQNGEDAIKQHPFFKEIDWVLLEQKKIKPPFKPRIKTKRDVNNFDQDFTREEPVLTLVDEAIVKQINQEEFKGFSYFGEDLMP
The assay is described as follows: Inhibition of protein kinase C epsilon expressed in Sf-9 cells.

Assay [5] has as its target T5, Protein kinase C eta type (Homo sapiens, UniProt P24723). Kind of assay: Inhibition of Protein kinase C eta expressed in Sf-9 cells.
For assay [6], the species on record is Homo sapiens. The assay is described as follows: Compound was tested for inhibition of phorbol-induced superoxide generation in human neutrophils using neutrophil assay. It counts as functional.
Assay [7] is filed under the species Homo sapiens. The assay is described as follows: Compound was tested for inhibition of phorbol-induced superoxide generation in human neutrophils after 1 hr pre-incubation at 4 degree C using neutrophil assay; value ranges from 2.8-10. It counts as functional.
The species named for assay [8] is Homo sapiens. The assay is described as follows: Compound was tested for inhibition of phorbol-induced superoxide generation in human neutrophils after 1 hr pre-incubation at 4 degree C using neutrophil assay. It counts as functional.
Assay [9] addresses T2, Protein kinase C delta type. The assay is described as follows: Inhibition of Protein kinase C delta expressed in Sf-9 cells (inactive).
For assay [10], the species on record is Homo sapiens. Kind of assay: Compound was tested for inhibition of phorbol-induced superoxide generation in human neutrophils using neutrophil assay; value ranges from […]-[…]. It is filed as functional.
Assay [11] concerns the target T3, Protein kinase C alpha type. Kind of assay: Inhibition of Protein kinase C alpha expressed in Sf-9 cells (inactive).
In assay [12] the target is T5, Protein kinase C eta type. Kind of assay: Inhibition of Protein kinase C eta expressed in Sf-9 cells (inactive).
In assay [13] the target is T4, Protein kinase C epsilon type. Kind of assay: Inhibition of protein kinase C epsilon expressed in Sf-9 cells (inactive).
For assay [14], the species on record is Homo sapiens. Kind of assay: Compound was tested for inhibition of phorbol-induced superoxide generation in human neutrophils after 1 hr pre-incubation at 4 degree C using neutrophil assay; value ranges from 0.33-0.85. It is filed as functional.
Assay [15] deals with T1, Protein kinase C beta type. The assay is described as follows: Inhibition of Protein kinase C beta 2 expressed in Sf-9 cells (inactive).
The species entered for assay [16] is Homo sapiens. Kind of assay: Compound was tested for inhibition of phorbol-induced superoxide generation in human neutrophils using neutrophil assay; value ranges from 0.8-2.1. It is filed as functional.
For assay [17], the species on record is Homo sapiens. The assay is described as follows: cells. It counts as functional, organism-based.

T1 sequence (P05771 whole entry): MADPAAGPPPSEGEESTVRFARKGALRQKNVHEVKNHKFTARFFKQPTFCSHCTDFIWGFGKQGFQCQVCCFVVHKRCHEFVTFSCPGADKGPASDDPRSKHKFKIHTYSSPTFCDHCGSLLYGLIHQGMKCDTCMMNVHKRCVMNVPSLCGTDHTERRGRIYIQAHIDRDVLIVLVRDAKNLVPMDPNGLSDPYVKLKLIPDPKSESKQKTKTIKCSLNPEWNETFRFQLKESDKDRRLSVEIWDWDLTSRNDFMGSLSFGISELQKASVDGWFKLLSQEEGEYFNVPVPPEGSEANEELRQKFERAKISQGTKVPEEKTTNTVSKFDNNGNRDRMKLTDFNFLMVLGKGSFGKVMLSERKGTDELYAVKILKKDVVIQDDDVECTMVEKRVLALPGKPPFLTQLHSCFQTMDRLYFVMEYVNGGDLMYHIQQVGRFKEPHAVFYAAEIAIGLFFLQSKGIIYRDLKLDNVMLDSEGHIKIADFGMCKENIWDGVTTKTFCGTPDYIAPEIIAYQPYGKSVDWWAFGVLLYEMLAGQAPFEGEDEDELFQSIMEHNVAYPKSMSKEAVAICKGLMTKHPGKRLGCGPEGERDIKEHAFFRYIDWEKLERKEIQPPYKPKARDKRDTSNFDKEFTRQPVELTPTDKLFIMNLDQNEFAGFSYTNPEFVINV
T2 sequence (Q05655 whole entry): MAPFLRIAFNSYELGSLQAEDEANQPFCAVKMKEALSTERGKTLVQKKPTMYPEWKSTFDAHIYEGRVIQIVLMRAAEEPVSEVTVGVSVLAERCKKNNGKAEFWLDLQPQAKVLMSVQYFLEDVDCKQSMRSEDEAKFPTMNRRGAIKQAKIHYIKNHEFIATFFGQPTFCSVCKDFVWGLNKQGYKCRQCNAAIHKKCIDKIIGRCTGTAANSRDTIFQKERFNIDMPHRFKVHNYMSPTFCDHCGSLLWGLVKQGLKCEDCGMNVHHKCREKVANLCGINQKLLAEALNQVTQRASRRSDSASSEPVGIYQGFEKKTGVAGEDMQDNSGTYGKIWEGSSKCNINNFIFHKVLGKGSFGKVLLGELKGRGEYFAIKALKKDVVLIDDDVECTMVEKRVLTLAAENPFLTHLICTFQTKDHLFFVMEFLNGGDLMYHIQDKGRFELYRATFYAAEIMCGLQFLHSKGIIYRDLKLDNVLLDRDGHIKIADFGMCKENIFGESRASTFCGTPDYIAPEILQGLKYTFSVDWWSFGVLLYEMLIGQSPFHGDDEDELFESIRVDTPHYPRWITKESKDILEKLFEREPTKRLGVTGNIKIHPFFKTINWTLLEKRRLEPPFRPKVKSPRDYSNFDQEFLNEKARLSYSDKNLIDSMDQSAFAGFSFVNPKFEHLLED
T5 sequence (P24723 whole entry): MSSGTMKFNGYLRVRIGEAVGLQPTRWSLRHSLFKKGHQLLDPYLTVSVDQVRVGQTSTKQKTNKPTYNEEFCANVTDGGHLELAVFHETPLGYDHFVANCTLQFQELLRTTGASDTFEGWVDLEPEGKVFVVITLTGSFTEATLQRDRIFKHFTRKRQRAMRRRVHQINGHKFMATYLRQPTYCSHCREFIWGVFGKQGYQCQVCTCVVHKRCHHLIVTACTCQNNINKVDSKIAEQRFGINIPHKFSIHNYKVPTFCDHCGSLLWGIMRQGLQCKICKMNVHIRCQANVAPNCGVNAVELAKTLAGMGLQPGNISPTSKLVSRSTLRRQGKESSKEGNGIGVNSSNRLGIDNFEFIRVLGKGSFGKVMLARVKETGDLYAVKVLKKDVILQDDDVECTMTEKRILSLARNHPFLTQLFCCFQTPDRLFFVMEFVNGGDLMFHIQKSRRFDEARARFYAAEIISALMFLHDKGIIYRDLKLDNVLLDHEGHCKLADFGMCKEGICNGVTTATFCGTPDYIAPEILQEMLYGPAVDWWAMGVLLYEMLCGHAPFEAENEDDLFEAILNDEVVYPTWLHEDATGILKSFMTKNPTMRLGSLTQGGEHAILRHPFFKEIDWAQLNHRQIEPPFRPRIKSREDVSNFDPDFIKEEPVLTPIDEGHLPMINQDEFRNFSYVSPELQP

Regarding `O=C(N[C@@H]1CNC[C@H]1OC(=O)c1cc(O)c(C(=O)c2c(O)cccc2C(=O)OCC2CCCCC2)c(O)c1)c1ccc(O)cc1`, the 50% inhibitory concentration (IC50) was 22 µM in assay [1]; 0.31 µM in [2]; 17 µM in assay [3]; 25 µM in [4]; 0.05 µM in assay [5]; more than 10 µM in [6] (Homo sapiens).

Take `CC(C)(C)C(=O)OCOC(=O)c1cccc(O)c1C(=O)c1c(O)cc(C(=O)O[C@@H]2CNC[C@H]2NC(=O)c2ccc(O)cc2)cc1O`: the IC50 was 0.02 µM in [1]; more than 2.8 µM in [7]; 0.01 µM in assay [2]; 0.16 µM in assay [3]; 0.034 µM in assay [4]; 0.004 µM in assay [5].

As for `COC(=O)c1cccc(O)c1C(=O)c1c(O)cc(C(=O)O[C@@H]2CNC[C@H]2NC(=O)c2ccc(O)cc2)cc1O`, the IC50 in assay [1] was 0.29 µM; in assay [2], 0.018 µM; in assay [3], 0.25 µM; in assay [4] it was 0.17 µM; in assay [5], 0.016 µM; in assay [6] (Homo sapiens) it was more than 50 µM.

Consider `CCOC(=O)c1cccc(O)c1C(=O)c1c(O)cc(C(=O)O[C@@H]2CNC[C@H]2NC(=O)c2ccc(O)cc2)cc1O`, for which the IC50 in [1] is 1 µM; in [2] it was 0.05 µM; in [3], 2.2 µM; in assay [4], 1.3 µM; in assay [5], 0.02 µM; in assay [6] (Homo sapiens), more than 10 µM.

With `CC(C)OC(=O)c1cccc(O)c1C(=O)c1c(O)cc(C(=O)O[C@@H]2CCC[C@H]2NC(=O)c2ccc(O)cc2)cc1O`, the half-maximal inhibitory concentration (IC50) was 0.44 µM in assay [1]; 0.05 µM in assay [2]; 4.7 µM in assay [3]; 13 µM in [4]; 0.26 µM in assay [5]; more than 10 µM in assay [6] (Homo sapiens).

Take `O=C(N[C@@H]1CCC[C@H]1OC(=O)c1cc(O)c(C(=O)c2c(O)cccc2C(=O)O)c(O)c1)c1ccc(O)cc1`: in assay [8], the IC50 is more than 10 µM.

In turn, `O=C(N[C@@H]1CNC[C@H]1OC(=O)c1cc(O)c(C(=O)c2c(O)cccc2C(=O)O)c(O)c1)c1ccc(O)cc1` yielded an IC50 in [6] (Homo sapiens) of more than 50 µM.

For `CCOC(=O)c1cccc(O)c1C(=O)c1c(O)cc(C(=O)O[C@@H]2CCC[C@H]2NC(=O)c2ccc(O)cc2)cc1O`, the IC50 in assay [1] is 1.6 µM; in assay [2], 0.067 µM; in [3], 0.92 µM; in assay [4], 0.66 µM; in assay [5], 0.052 µM; in [6] (Homo sapiens), more than 2.6 µM.

In the case of `CCCCOC(=O)c1cccc(O)c1C(=O)c1c(O)cc(C(=O)O[C@@H]2CNC[C@H]2NC(=O)c2ccc(O)cc2)cc1O`, the IC50 in assay [1] was 2.2 µM; in assay [2], 0.08 µM; in [3], 3.1 µM; in assay [4], 3.7 µM; in assay [5] it was 0.04 µM; in assay [6] (Homo sapiens), more than 10 µM.

On to `CC(=O)OCOC(=O)c1cccc(O)c1C(=O)c1c(O)cc(C(=O)O[C@@H]2CNC[C@H]2NC(=O)c2ccc(O)cc2)cc1O`, for which the IC50 was 0.02 µM in assay [1]; 0.024 µM in [2]; more than 10 µM in assay [8]; 0.13 µM in assay [3]; 0.13 µM in assay [4]; 0.014 µM in assay [5].

On to `CC(C)(C)C(=O)OCOC(=O)c1cccc(O)c1C(=O)c1c(O)cc(C(=O)O[C@@H]2CCC[C@H]2NC(=O)c2ccc(O)cc2)cc1O`, for which the IC50 result was “Not Active” in assay [9]; more than 3.68 µM in [10]; “Not Active” in assay [11]; “Not Active” in assay [12]; “Not Active” in [13]; more than 0.33 µM in assay [14]. Further, in [15], the IC50 result is listed as “Not Active”.

Regarding `CC(C)COC(=O)c1cccc(O)c1C(=O)c1c(O)cc(C(=O)O[C@@H]2CNC[C@H]2NC(=O)c2ccc(O)cc2)cc1O`, the IC50 in assay [1] is 20 µM; in assay [2] it was 0.2 µM; in assay [3], 19 µM; in [4], 3.2 µM; in [5], 0.05 µM; in assay [6] (Homo sapiens), more than 10 µM.

For `COC(=O)c1cccc(O)c1C(=O)c1c(O)cc(C(=O)O[C@@H]2CCC[C@H]2NC(=O)c2ccc(O)cc2)cc1O` (racemic), the IC50 in assay [16] was more than 0.8 µM; in assay [1], 0.33 µM; in [17], more than 1.72 µM; in assay [2] it was 0.03 µM; in assay [3], 0.32 µM; in [4] it was 0.26 µM. The IC50 in assay [5] came to 0.03 µM.

In the case of `COC(=O)c1cccc(O)c1C(=O)c1c(O)cc(C(=O)O[C@@H]2CCC[C@H]2NC(=O)c2ccc(O)cc2)cc1O` (stereo in doubt; 8 (+)), the IC50 in assay [1] is 1.8 µM; in assay [2] it was 0.25 µM; in [3], 4.2 µM; in [4], 20 µM; in assay [5], 0.4 µM; in assay [6], more than 10 µM.

Turning to `COC(=O)c1cccc(O)c1C(=O)c1c(O)cc(C(=O)O[C@@H]2CCC[C@H]2NC(=O)c2ccc(O)cc2)cc1O` (stereo in doubt; 8 (-)), the IC50 in assay [1] is 0.04 µM; in [2], 0.005 µM; in assay [3], 0.21 µM; in assay [4], 0.3 µM; in assay [5] it was 0.004 µM; in assay [6] it was more than 1.5 µM.

The molecule `O=C(N[C@@H]1CNCCC[C@H]1OC(=O)c1cc(O)c(C(=O)c2c(O)cccc2C(=O)O)c(O)c1)c1ccc(O)cc1` [BALANOL] showed a half-maximal inhibitory concentration (IC50) in assay [6] (Homo sapiens) of more than 10 µM.

The term IC50 denotes the concentration that gives 50% inhibition.
